One block for each compound: values may come before it.
Experiments:
[1] = biological target: T1, Mitogen-activated protein kinase kinase kinase 2 (Homo sapiens) (UniProt Q9Y2U5); conditions: at 10 µM
T1 sequence (whole entry): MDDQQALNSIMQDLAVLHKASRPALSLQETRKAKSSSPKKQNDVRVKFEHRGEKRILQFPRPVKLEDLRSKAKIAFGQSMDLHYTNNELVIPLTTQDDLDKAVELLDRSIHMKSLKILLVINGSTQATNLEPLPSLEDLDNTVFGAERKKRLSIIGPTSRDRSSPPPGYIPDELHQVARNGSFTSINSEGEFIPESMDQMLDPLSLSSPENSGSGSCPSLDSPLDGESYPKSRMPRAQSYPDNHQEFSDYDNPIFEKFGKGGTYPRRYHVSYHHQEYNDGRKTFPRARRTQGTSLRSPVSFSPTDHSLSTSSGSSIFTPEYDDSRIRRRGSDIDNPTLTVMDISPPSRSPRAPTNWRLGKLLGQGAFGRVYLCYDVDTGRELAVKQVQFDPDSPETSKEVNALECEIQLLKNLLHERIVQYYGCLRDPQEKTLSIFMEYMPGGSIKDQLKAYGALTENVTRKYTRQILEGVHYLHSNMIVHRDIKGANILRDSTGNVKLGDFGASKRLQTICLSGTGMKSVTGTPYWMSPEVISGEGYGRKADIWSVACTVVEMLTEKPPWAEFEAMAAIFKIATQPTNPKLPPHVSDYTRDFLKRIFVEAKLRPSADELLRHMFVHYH

[2] = biological target: Acetylcholine receptor subunit alpha (Homo sapiens, UniProt P02708); assay: Selectivity interaction (Nicotinic (CNS) Receptor binding in human IMR32 cells ) EUB0000877a CHRNA1; type: cell-based, IMR-32
[3] = biological target: Dual specificity mitogen-activated protein kinase kinase 2 (Homo sapiens) (UniProt P36507); assay: Selectivity interaction (ProQinase) EUB0000171b MAP2K2
[4] = biological target: T2, Beta-adrenergic receptor kinase 1 (Homo sapiens) (UniProt P25098); assay: Selectivity interaction (ProQinase) EUB0000171b ADRBK1
T2 sequence (whole entry): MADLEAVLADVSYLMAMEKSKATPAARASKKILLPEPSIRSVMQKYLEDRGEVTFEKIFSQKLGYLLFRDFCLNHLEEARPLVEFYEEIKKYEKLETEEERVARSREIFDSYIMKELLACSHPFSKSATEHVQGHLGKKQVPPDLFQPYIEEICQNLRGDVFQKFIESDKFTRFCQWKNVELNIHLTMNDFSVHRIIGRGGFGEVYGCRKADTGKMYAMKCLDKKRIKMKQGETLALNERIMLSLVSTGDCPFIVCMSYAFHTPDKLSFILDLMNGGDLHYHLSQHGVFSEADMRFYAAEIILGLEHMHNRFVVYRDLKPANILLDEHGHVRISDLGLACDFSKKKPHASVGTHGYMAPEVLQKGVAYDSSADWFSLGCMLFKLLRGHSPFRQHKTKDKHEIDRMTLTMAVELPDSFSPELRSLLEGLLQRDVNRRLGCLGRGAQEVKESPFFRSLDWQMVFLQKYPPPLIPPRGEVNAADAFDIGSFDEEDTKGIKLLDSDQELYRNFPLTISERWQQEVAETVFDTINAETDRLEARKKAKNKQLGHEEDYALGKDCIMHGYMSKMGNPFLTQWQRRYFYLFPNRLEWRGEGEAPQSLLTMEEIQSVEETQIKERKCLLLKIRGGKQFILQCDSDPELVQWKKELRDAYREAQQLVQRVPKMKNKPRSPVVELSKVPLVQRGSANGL

[5] = biological target: T3, Serine/threonine-protein kinase Nek1 (Homo sapiens) (UniProt Q96PY6); assay: Selectivity interaction (Kinase panel (KiNativ target engagement assay in Jurkat cells)) EUB0001635a NEK1; type: cell-based; conditions: at 1 µM
T3 sequence (whole entry): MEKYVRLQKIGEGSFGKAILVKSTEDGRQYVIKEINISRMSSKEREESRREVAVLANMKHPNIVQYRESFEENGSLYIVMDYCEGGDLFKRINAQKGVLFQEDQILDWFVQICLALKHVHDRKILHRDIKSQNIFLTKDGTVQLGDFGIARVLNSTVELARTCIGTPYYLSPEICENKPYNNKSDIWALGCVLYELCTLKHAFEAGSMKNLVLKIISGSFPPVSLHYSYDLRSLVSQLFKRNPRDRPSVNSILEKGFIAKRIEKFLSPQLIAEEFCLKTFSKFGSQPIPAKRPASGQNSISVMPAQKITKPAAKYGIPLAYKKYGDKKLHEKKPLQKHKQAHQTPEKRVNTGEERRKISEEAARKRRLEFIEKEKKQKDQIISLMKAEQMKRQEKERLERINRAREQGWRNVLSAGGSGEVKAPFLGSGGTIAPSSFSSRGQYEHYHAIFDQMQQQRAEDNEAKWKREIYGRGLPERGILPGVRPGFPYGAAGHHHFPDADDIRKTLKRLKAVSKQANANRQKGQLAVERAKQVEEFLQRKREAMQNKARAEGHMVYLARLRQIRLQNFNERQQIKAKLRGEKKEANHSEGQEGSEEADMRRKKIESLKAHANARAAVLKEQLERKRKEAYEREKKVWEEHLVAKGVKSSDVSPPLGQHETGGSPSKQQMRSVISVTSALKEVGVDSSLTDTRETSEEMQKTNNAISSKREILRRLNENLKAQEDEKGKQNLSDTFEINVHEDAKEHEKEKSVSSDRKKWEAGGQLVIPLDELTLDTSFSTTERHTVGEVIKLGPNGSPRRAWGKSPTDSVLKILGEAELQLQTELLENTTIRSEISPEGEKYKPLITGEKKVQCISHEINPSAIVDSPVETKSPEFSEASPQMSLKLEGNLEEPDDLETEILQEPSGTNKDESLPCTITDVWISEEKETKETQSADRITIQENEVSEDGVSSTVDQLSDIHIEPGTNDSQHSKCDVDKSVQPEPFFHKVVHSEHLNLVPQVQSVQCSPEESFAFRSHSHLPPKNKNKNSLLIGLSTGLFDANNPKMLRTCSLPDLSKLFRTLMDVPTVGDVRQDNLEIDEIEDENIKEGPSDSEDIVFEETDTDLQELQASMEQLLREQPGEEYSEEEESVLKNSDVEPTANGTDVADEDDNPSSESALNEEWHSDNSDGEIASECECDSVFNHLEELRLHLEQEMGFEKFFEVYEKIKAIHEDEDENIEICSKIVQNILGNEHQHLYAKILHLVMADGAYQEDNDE

Chain of Dual specificity mitogen-activated protein kinase kinase 2 (Homo sapiens) (P36507 whole entry): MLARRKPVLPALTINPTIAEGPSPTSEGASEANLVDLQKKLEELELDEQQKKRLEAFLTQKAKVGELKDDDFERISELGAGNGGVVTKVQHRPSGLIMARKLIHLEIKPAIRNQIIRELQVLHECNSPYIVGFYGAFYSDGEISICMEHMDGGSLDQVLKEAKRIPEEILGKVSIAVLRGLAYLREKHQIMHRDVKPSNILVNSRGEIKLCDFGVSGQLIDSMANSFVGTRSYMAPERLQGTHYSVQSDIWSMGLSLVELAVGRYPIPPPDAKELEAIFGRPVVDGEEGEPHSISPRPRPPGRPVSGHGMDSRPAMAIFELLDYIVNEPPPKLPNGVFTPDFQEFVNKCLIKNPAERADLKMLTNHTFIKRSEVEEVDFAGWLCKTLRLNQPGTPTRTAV
Chain of Acetylcholine receptor subunit alpha (P02708 whole entry): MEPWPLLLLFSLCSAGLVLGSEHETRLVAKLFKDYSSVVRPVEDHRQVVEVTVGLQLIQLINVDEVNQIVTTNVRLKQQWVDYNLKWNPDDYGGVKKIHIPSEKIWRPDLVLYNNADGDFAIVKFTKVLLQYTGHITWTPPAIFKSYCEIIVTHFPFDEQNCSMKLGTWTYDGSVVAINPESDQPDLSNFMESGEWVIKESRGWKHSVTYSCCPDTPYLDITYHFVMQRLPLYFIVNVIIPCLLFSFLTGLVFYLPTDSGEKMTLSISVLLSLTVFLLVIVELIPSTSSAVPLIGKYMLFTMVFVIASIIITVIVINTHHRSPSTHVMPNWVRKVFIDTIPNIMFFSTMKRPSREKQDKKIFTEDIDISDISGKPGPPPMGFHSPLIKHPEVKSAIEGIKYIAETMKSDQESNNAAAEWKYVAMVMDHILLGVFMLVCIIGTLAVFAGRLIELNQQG

Structure (SMILES): Cc1cc([C@@H](C)Nc2ccccc2C(=O)O)c2nc(N3CCOCC3)cc(=O)n2c1 [AZD-6482]
% of control [1]: 100%

IC50 [2]: > 30 µM
Structure (SMILES): CCC(=O)N1CC[C@H](Nc2ncnc3c2CN(c2cnc(OC)c(C(F)(F)F)c2)CC3)C1 [LENIOLISIB]

% of control ([3]; at 1 µM): 76%
% of control ([3]; at 5 µM): 36%
% of control ([4]; at 1 µM): 101%
% of control ([4]; at 5 µM): 88%
Structure (SMILES): C=CC(=O)Nc1cccc(C(=O)Nc2ccc(Nc3cc(-c4[nH]c(SC)nc4C)ccn3)cc2)c1

Structure (SMILES): C=CC(=O)Nc1ccc(C(=O)Nc2[nH]nc3c2CN(C(=O)N[C@H](CN(C)C)c2ccccc2)C3(C)C)cc1
% of engagement [5]: -2.5%

Reference: ChEMBL document CHEMBL5465560, “Selectivity Literature for EUbOPEN Chemogenomic Library” (2024)
